Patent US20110173718A1, “HERBICIDE TOLERANT PLANTS” (SYNGENTA CROP PROTECTION, INC., priority 2008, published 2011)

Tested on: weeds
Assay: Glasshouse weed control by HST/HPPD (mesotrione) mixtures, pre-emergence
Format: in vivo
Conditions: for colby: Colby synergy score; for % Damage at 14 DAA, 1 g ai ha^−1 mesotrione / % Damage at 14 DAA, no-mesotrione: N = 3
Procedure: Weed seeds are planted out in trays containing suitable soil (for example 50% peat, 50% John Innes soil no 3) and grown in the glass house conditions under 24-27° C. day; 18-21° C. night and approximately a 14 h (or longer in UK summer) photoperiod. Humidity is ˜65% and light levels up to 2000 μmol/m^2 at bench level. Trays are sprayed with test chemicals dissolved in water with 0.2-0.25% X-77 surfactant and sprayed from a boom on a suitable track sprayer moving at about 2 mph in a suitable track sprayer (for example a DeVries spray chamber with the nozzle about 2 inches from the plant tops). Spray volume is suitably 500-1000 l/ha. Sprays are carried out both pre-emergence and over small plants at about 7-12 d post-emergence
Plants are assessed 14 DAT and herbicidal damage is scored on a scale from 0 to 100%. The HST inhibitor compound 2.30 (designated compound A in table 16 and 17), haloxydine (compound 1.1) and compound 2.13 (designated compound AE in tables 16 and 17) are sprayed at rates between 0 and 500 g/ha.

[1] = AMARE, 125 g/ha + mesotrione 1 g ai/ha
[2] = AMARE, 250 g/ha + mesotrione 1 g ai/ha
[3] = AMARE, 500 g/ha + mesotrione 1 g ai/ha
[4] = ECHCG, 16 g/ha + mesotrione 1 g ai/ha
[5] = ECHCG, 31 g/ha + mesotrione 1 g ai/ha
[6] = ECHCG, 63 g/ha + mesotrione 1 g ai/ha
[7] = ECHCG, 125 g/ha + mesotrione 1 g ai/ha
[8] = ECHCG, 250 g/ha + mesotrione 1 g ai/ha
[9] = ECHCG, 500 g/ha + mesotrione 1 g ai/ha
[10] = IPOHE, 16 g/ha + mesotrione 1 g ai/ha
[11] = IPOHE, 31 g/ha + mesotrione 1 g ai/ha
[12] = IPOHE, 63 g/ha + mesotrione 1 g ai/ha
[13] = IPOHE, 125 g/ha + mesotrione 1 g ai/ha
[14] = IPOHE, 250 g/ha + mesotrione 1 g ai/ha
[15] = IPOHE, 500 g/ha + mesotrione 1 g ai/ha
[16] = SETFA, 16 g/ha + mesotrione 1 g ai/ha
[17] = SETFA, 31 g/ha + mesotrione 1 g ai/ha
[18] = SETFA, 63 g/ha + mesotrione 1 g ai/ha
[19] = SETFA, 125 g/ha + mesotrione 1 g ai/ha
[20] = SETFA, 250 g/ha + mesotrione 1 g ai/ha
[21] = SETFA, 500 g/ha + mesotrione 1 g ai/ha
[22] = SOLNI, 16 g/ha + mesotrione 1 g ai/ha
[23] = SOLNI, 31 g/ha + mesotrione 1 g ai/ha
[24] = SOLNI, 63 g/ha + mesotrione 1 g ai/ha
[25] = SOLNI, 125 g/ha + mesotrione 1 g ai/ha
[26] = SOLNI, 250 g/ha + mesotrione 1 g ai/ha
[27] = SOLNI, 500 g/ha + mesotrione 1 g ai/ha

O=c1c(-c2c(F)ccc(F)c2Cl)c(O)c2cccnc2n1CC(F)F [Compound 2.13]
57%: % Damage at 14 DAA, 1 g ai ha^−1 mesotrione [2]
23%: % Damage at 14 DAA, 1 g ai ha^−1 mesotrione [23]
4%: colby [24]
33%: % Damage at 14 DAA, no-mesotrione (SOLNI, 125 g/ha)
5%: colby [14] | % Damage at 14 DAA, 1 g ai ha^−1 mesotrione [14] | % Damage at 14 DAA, 1 g ai ha^−1 mesotrione [22] | colby [26]
85%: % Damage at 14 DAA, no-mesotrione (SOLNI, 500 g/ha)
9%: colby [3] | colby [25]
7%: colby [12] | % Damage at 14 DAA, 1 g ai ha^−1 mesotrione [12]
53%: % Damage at 14 DAA, no-mesotrione (AMARE, 250 g/ha) | % Damage at 14 DAA, 1 g ai ha^−1 mesotrione [25]
68%: % Damage at 14 DAA, no-mesotrione (SOLNI, 250 g/ha)
38%: % Damage at 14 DAA, 1 g ai ha^−1 mesotrione [24]
−3%: colby [23]
32%: % Damage at 14 DAA, no-mesotrione (AMARE, 125 g/ha)
−1%: colby [27]
−2%: colby [9]
12%: colby [1] | % Damage at 14 DAA, no-mesotrione (SOLNI, 31 g/ha)
17%: % Damage at 14 DAA, 1 g ai ha^−1 mesotrione [15] | % Damage at 14 DAA, no-mesotrione (IPOHE, 500 g/ha)
0%: colby [4] | % Damage at 14 DAA, 1 g ai ha^−1 mesotrione [4] | % Damage at 14 DAA, no-mesotrione (ECHCG, 16 g/ha) | colby [5] | % Damage at 14 DAA, 1 g ai ha^−1 mesotrione [5] | % Damage at 14 DAA, no-mesotrione (ECHCG, 31 g/ha) | % Damage at 14 DAA, no-mesotrione (ECHCG, 63 g/ha) | % Damage at 14 DAA, no-mesotrione (ECHCG, 125 g/ha) | % Damage at 14 DAA, no-mesotrione (ECHCG, 250 g/ha) | colby [10] | % Damage at 14 DAA, 1 g ai ha^−1 mesotrione [10] | % Damage at 14 DAA, no-mesotrione (IPOHE, 16 g/ha) | colby [11] | % Damage at 14 DAA, 1 g ai ha^−1 mesotrione [11] | % Damage at 14 DAA, no-mesotrione (IPOHE, 31 g/ha) | % Damage at 14 DAA, no-mesotrione (IPOHE, 63 g/ha) | colby [13] | % Damage at 14 DAA, 1 g ai ha^−1 mesotrione [13] | % Damage at 14 DAA, no-mesotrione (IPOHE, 125 g/ha) | % Damage at 14 DAA, no-mesotrione (IPOHE, 250 g/ha) | colby [15] | colby [16] | % Damage at 14 DAA, 1 g ai ha^−1 mesotrione [16] | % Damage at 14 DAA, no-mesotrione (SETFA, 16 g/ha) | colby [17] | % Damage at 14 DAA, 1 g ai ha^−1 mesotrione [17] | % Damage at 14 DAA, no-mesotrione (SETFA, 31 g/ha) | colby [18] | % Damage at 14 DAA, 1 g ai ha^−1 mesotrione [18] | % Damage at 14 DAA, no-mesotrione (SETFA, 63 g/ha) | colby [19] | % Damage at 14 DAA, 1 g ai ha^−1 mesotrione [19] | % Damage at 14 DAA, no-mesotrione (SETFA, 125 g/ha) | colby [20] | % Damage at 14 DAA, 1 g ai ha^−1 mesotrione [20] | % Damage at 14 DAA, no-mesotrione (SETFA, 250 g/ha) | colby [21] | % Damage at 14 DAA, 1 g ai ha^−1 mesotrione [21] | % Damage at 14 DAA, no-mesotrione (SETFA, 500 g/ha) | % Damage at 14 DAA, no-mesotrione (SOLNI, 16 g/ha)
60%: % Damage at 14 DAA, no-mesotrione (AMARE, 500 g/ha)
3%: colby [2] | colby [6] | % Damage at 14 DAA, 1 g ai ha^−1 mesotrione [6] | colby [7] | % Damage at 14 DAA, 1 g ai ha^−1 mesotrione [7] | % Damage at 14 DAA, no-mesotrione (ECHCG, 500 g/ha)
87%: % Damage at 14 DAA, 1 g ai ha^−1 mesotrione [27]
−12%: colby [22]
22%: % Damage at 14 DAA, no-mesotrione (SOLNI, 63 g/ha)
70%: % Damage at 14 DAA, 1 g ai ha^−1 mesotrione [3]
2%: colby [8] | % Damage at 14 DAA, 1 g ai ha^−1 mesotrione [8] | % Damage at 14 DAA, 1 g ai ha^−1 mesotrione [9]
45%: % Damage at 14 DAA, 1 g ai ha^−1 mesotrione [1]
78%: % Damage at 14 DAA, 1 g ai ha^−1 mesotrione [26]
